Read-outs that look alike come from different tables or passages of the source.
Tests used:
NCI-H209 = assay: Caspase 3/7 activation (apoptosis); assay type: cell-based; parameters: key: “+” (present); “−” (absent); details: Rb x, p53 x
Description: (§1) It was noted that cancer cell lines that were growth inhibited at lower concentrations of Compound 1 more frequently responded to Compound 1 exposure with an apoptotic reaction (FIG. 2). Since PC cell lines were among the cancer cell types displaying a particularly high sensitivity to Compound 1 treatment (FIG. 1), the potentially underlying biological reasons for an apoptotic response were investigated in a set of PC cell lines consisting of DU-145, LNCaP, 22Rv1 and PC3 cells.
(§2) In table 1, “wt”=wild-type; “x”=cells harboring Rb and p53 deficiencies; “+” (present) or “−” (absent) indicate the arrest (i.e. accumulation) of cells in S-phase triggered by Compound 1, which coincided with accumulation of the DNA damage marker phosphorylated gamma H2AX (γH2AX; see FIG. 3A). These events are followed by activation of caspases 3 and 7 as indicators of cell apoptosis as indicated by “+” (present) or “−” (absent). In cancer cells with intact Rb and/or p53 functions (wt=wild-type), Compound 1 induced growth arrest but not a substantial increase of cells in S-phase (=S-phase arrest). Upon release of treatment, such cells are able to proliferate again.

NCI-H69 = assay: Caspase 3/7 activation (apoptosis); assay type: cell-based; parameters: key: “+” (present); “−” (absent); details: Rb x, p53 x
Description: as §1, §2

Hut-78 = assay: Caspase 3/7 activation (apoptosis); assay type: cell-based; parameters: key: “+” (present); “−” (absent); details: Rb x, p53 x
Description: as §1, §2

22Rv1 = assay: Caspase 3/7 activation (apoptosis); assay type: cell-based; parameters: key: “+” (present); “−” (absent); details: Rb wt, p53 wt
Description: as §1, §2

NCI-H660 = assay: Caspase 3/7 activation (apoptosis); assay type: cell-based; parameters: key: “+” (present); “−” (absent); details: Rb x, p53 x
Description: as §1, §2

LNCaP = assay: Caspase 3/7 activation (apoptosis); assay type: cell-based; parameters: key: “+” (present); “−” (absent); details: Rb wt, p53 wt
Description: as §1, §2

NCI-H146 = assay: Caspase 3/7 activation (apoptosis); assay type: cell-based; parameters: key: “+” (present); “−” (absent); details: Rb x, p53 x
Description: as §1, §2

Y-79 = assay: Caspase 3/7 activation (apoptosis); assay type: cell-based; parameters: key: “+” (present); “−” (absent); details: Rb x, p53 wt
Description: as §1, §2

BT-549 = assay: Caspase 3/7 activation (apoptosis); assay type: cell-based; parameters: key: “+” (present); “−” (absent); details: Rb x, p53 x
Description: as §1, §2

PC3 = assay: Caspase 3/7 activation (apoptosis); assay type: cell-based; parameters: key: “+” (present); “−” (absent); details: Rb wt, p53 x
Description: as §1, §2

NCI-H82 = assay: Caspase 3/7 activation (apoptosis); assay type: cell-based; parameters: key: “+” (present); “−” (absent); details: Rb x, p53 x
Description: as §1, §2

DU-145 = assay: Caspase 3/7 activation (apoptosis); assay type: cell-based; parameters: key: “+” (present); “−” (absent); details: Rb x, p53 x
Description: as §1, §2

SCLC-21H = assay: Caspase 3/7 activation (apoptosis); assay type: cell-based; parameters: key: “+” (present); “−” (absent); details: Rb x, p53 x
Description: as §1, §2

[1] = Plasma protein binding, equilibrium dialysis; assay type: in vitro ADME; details: 37° C, buffer pH 7.4, read-out: Fraction unbound (Fu), Mean
Protocol: Protein binding of Compound 1 to the plasma from several species, i.e., human, cynomolgus monkey, dog, rat, and mouse was investigated in vitro by incubation in plasma and determination of unbound fraction of Compound 1 using equilibrium dialysis. Compound 1 was incubated in 100% species-specific plasma and added to one side of the membrane in an equilibrium dialysis system while buffer (pH 7.4) is added to the other side. The system was allowed to reach equilibrium at 37° C. Compound concentration on both sides of the membrane is measured by liquid chromatography—tandem mass spectroscopy (LC-MS/MS).

A549 NSCLC cells = assay: Cell cycle FACS analysis; assay type: cell-based; details: A549, wild-type Rb and p53; 20 or 200 nM, 24 h
Protocol: Cell cycle phase distribution in control (C) cells or cells treated at 20 or 200 nM Compound 1 for 24 hours (24 h) determined by fluorescence activated cell sorting (FACS) analysis, and detection of histone H2A variant H2A.X phosphorylation (γH2A.X, also referred to herein as gamma H2A.X or γH2A.X) by Western blot as DNA damage biomarker.
In FIG. 3A, protein amounts were normalized using total protein load with ImageLab 6.0 Software (BioRad).

CC(C)C[C@@H]1NCCN([C@@H](CC(C)C)C(=O)N2CCC3(C[C@@H]2C)OCC(CN2CCCC2)CO3)C1=O (stereo partly drawn) [Compound 1, (S)-3-isobutyl-1-((S)-4-methyl-1-((S)-8-methyl-3-(pyrrolidin-1-ylmethyl)-1,5-dioxa-9-azaspiro[5.5]undecan-9-yl)-1-oxopentan-2-yl)piperazin-2-one]
Caspase 3/7, 8 (NCI-H209): +
Caspase 3/7, 8 (NCI-H69): +
Caspase 3/7, 8 (Hut-78): +
Caspase 3/7, 8 (22Rv1): −
Caspase 3/7 activation (NCI-H660): +
Caspase 3/7, 8 (LNCaP): −
Caspase 3/7, 8 (NCI-H146): +
Caspase 3/7, 8 (Y-79): −
Caspase 3/7, 8 (BT-549): +
Caspase 3/7, 8 (PC3): −
Caspase 3/7, 8 (NCI-H82): +
Caspase 3/7, 8 (DU-145): +
Caspase 3/7, 8 (SCLC-21H): +
fraction unbound ([1]; dog plasma): 0.619
fraction unbound ([1]; human plasma): 0.547
fraction unbound ([1]; mouse plasma): 0.574
fraction unbound ([1]; rat plasma): 0.528
cell cycle response (A549 NSCLC cells): arrested in G1-phase

Source: patent US12611406B2, “Oxopiperazine derivatives for the treatment of cancer” (Inthera Bioscience AG, priority 2020, dated 2026)
